Laboratory results taken from US20250188171A1, “COMBINATION THERAPY INCLUDING ANTIBODIES THAT BIND EGFR AND CMET” (MERUS N.V., priority 2022, published 2025).

Columns and labels:
cMET and EGFR = details: Moores et al. (2016); cited from earlier work
[1] = tested on: LXFE2478 NSCLC PDX tumor model
Description: This model carries mutation EGFRex20ins (M766_A767insASV).
Insertion of 9 nucleotides in exon 20 in this model affects the EGFR tyrosine kinase domain (M766X) and confers resistance to small molecule EGFR inhibitors. This model carries no mutations in B-RAF, H-/N- and KRAS and PTEN genes (whole exome sequencing was done for both patient tumor and tumor xenograft with matching results).
Antitumor efficacy of all groups was assessed using the control vehicle/placebo buffer group as a reference. Tumor growth inhibition was determined by the comparison of RTVs of the test groups with the control group and is expressed as minimum T/C value in percent. For the evaluation of the statistical significance of antitumor efficacy, the non-parametric Kruskal-Wallis test followed by Dunn's method for multiple comparisons was performed. […] Statistical analysis was only carried out if at least 50% of the initially randomized animals still remained in the relevant group. Comparisons between test groups were carried out for the same days. All p-values <0.05 were considered statistically significant. Statistical calculations were performed using GraphPad Prism bioanalytic software (version 9.10 for Microsoft Windows, GraphPad Software, San Diego, California, USA.
Tumors were harvested from the donor PDX mice, cut into fragments (LXFE2478: 3-4 mm edge length) and inoculated into recipient nude mice subcutaneously (SC) in the flank. When the tumor implants reached approximately 80-200 mm3 in a sufficient number of animals, mice were assigned to groups. Randomization was performed based on “stratified distribution” method. Treatment started on the same day as randomization (day 0).
Treatment started the same day as enrollment (day 0). Mice were terminated during the observation period if the tumor volume was >1000 mm3.
Antibody was administered once a week intra peritoneally (IP) at 5 mg/kg and 25 mg/kg dose over a period of 5 weeks.
After randomization, animals were routinely monitored for morbidity and mortality, they were weighted twice a week, and tumor volumes (TV) were determined twice a week with a caliper. Relative body weight (RBW) was calculated by dividing the absolute weight or volume on a certain day by the absolute weight at day 0 multiplied by 100. Relative tumor volumes (RTV) were calculated by dividing the absolute individual tumor volume on a certain day by the absolute tumor volume at day 0 multiplied by 100.
For mice that lost >10% body weight, weight was measured daily, and animals had facilitated access to feed and water, and access to DietGel.
A dose-free observation period was included to compare duration of response and relapse (tumor re-growth) after treatment end. […]

HCC827-ER1 tumor cells = test: HCC827-ER1 NSCLC CDX model with EGFR exon 19 deletion
Excerpt: The model HCC827-ER1 was generated in BALB/c nude mice. It carries an EGFR mutation in exon 19 (deletion E746-A750), and has amplified c-MET copy number and Axl expression compared to the wild type HCC827 cell line.
Each mouse was inoculated in the right front flank region with HCC827-ER1 tumor cells mixed with Matrigel for tumor development. […] The date of randomization was denoted as day 0 and dosing was initiated from day 0. […] The dose-free observation period was included to compare duration of response and relapse (tumor re-growth) after treatment end. Mice with tumor volume exceeding 1500 mm^3, or with body weight loss over 20% relative to the weight at the first day of treatment were terminated during the treatment period. Antibody was administered twice a week intra peritoneally (i.p.) at 25 mg/kg dose over a period of 21 days, with a total of 7 doses. […] Eight mice in group 1 were treated with vehicle control (placebo buffer). Tumor volume (mm^3) was measured twice per week in 2 dimensions using a caliper. The animals were checked for any effects of tumor growth and treatments on behavior such as mobility, food and water consumption, body weight gain/loss, eye/hair matting and any other abnormalities. Body weights were measured twice per week after randomization.

mouse EGFR = mouse EGFR (Mus musculus, UniProt Q01279); test: Binding to mouse EGFR; details: in words
cMET = cMET (Homo sapiens, UniProt P08581); details: reported; cited from earlier work
cMET, sequence (P08581 25-1390): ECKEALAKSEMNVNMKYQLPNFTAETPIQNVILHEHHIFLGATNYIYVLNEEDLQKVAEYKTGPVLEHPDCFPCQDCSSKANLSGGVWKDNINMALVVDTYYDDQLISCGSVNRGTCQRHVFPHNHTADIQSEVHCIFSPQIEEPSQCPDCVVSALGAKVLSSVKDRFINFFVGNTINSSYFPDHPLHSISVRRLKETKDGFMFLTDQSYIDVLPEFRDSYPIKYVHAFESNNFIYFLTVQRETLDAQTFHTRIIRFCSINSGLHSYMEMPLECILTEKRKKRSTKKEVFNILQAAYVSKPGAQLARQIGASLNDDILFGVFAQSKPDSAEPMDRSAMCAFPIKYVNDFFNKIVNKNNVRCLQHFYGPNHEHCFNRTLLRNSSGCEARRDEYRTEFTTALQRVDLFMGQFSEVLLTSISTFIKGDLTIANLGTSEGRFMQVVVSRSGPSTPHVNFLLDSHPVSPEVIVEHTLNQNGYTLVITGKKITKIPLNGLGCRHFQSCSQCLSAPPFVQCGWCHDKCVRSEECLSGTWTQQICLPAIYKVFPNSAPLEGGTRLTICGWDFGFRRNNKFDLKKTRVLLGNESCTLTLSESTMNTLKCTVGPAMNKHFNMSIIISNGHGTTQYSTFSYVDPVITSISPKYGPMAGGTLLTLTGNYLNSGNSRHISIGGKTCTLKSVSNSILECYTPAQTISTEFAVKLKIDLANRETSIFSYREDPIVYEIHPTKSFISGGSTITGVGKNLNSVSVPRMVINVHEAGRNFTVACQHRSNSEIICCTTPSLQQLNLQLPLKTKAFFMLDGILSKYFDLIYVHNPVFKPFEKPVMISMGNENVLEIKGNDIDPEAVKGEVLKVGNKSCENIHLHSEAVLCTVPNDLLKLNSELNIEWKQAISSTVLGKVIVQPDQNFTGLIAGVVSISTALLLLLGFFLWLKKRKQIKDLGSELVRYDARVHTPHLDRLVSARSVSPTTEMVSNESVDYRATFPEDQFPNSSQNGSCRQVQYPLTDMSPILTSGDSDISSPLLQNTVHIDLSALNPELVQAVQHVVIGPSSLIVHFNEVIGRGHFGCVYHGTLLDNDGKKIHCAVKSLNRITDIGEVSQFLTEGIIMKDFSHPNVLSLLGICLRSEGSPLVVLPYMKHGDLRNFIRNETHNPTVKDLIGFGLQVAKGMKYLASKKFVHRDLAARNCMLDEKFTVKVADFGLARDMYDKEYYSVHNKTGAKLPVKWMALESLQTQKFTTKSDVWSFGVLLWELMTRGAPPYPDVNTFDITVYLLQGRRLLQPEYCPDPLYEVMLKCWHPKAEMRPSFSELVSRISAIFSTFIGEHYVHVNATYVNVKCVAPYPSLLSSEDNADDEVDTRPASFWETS

Compound: JNJ-61186372: bispecific cMET×EGFR antibody produced by controlled Fab-arm exchange (Moores et al 2016)
- affinity imbalance, greater affinity for cMET than EGFR (cMET and EGFR): approximately 40 ×

Compound: C=CC(=O)Nc1cc(Nc2nccc(-c3cn(C)c4ccccc34)n2)c(OC)cc1N(C)CCN(C)C [Osimertinib]
- anti-tumor efficacy, monotherapy ([1]; 5 and 25 mg/kg): dose-dependent anti-tumor efficacy
- body weight loss ([1]; Osimertinib 25 mg/kg PO QD): > 10%
- sensitivity of the model to treatment ([1]; at 5 mg/kg): reduced sensitivity
- xenograft progression to 750 mm3, mice ([1]; mouse, in vivo): 6/9
- adverse events (HCC827-ER1 tumor cells; 25 mg/kg): tumor scabbing or tumor ulceration in some mice
- effect on tumor volume (HCC827-ER1 tumor cells; mouse, in vivo): tumor regression

Compound: zalutumumab: EGFR monoclonal antibody in clinical development
- binding to mouse EGFR (mouse EGFR): do not

Compound: 5D5: reference anti-cMET antibody, Sema Domain, HGF block
- MOA (cMET): HGF block
